Measurements from US20110165226A1, “INFLUENZA CAP-LEADER SEQUENCE” (priority 2008, published 2011).

Test system: Influenza virus strain A/Puerto Rico/8/34 (H1/N1)
Type: biochemical

C9A10G11C12: leader length construct, CAGC within oligo U stretch, first base pairing A at position 10 (DNA CGACTCACTATAGTATTTTTCAGCTTTTTTTTTTCAAAATATTCCAAT; chemistry not fully specified; the letters are possibly those of the target site)
transcripts containing capped leaders originating from the mutant: 9 transcripts

C10A11G12C13: leader length construct, CAGC within oligo U stretch, first base pairing A at position 11 (DNA CGACTCACTATAGTATTTTTTCAGCTTTTTTTTTCAAAATATTCCAAT; chemistry not fully specified; the letters are possibly those of the target site)
transcripts containing capped leaders originating from the mutant: 5 transcripts
